From the NIST ThermoML archive (doi:10.1021/je060271a)

Conditions: 283.15 K, Liquid, Vibrating tube method

CCCCC(=O)OCC(COC(=O)CCCC)(COC(=O)CCCC)COC(=O)CCCC [pentaerythritol tetrapentanoate]
Conditions | mass density [kg/m3]
11059 kPa | 1033.4
11099 kPa | 1033.5
11132 kPa | 1033.6
11173 kPa | 1033.5
11207 kPa | 1033.7
11241 kPa | 1033.5
11283 kPa | 1033.7
11318 kPa | 1033.6
11354 kPa | 1033.6
11389 kPa | 1033.7
11432 kPa | 1033.7
11468 kPa | 1033.7
11505 kPa | 1033.8
11549 kPa | 1033.8
11586 kPa | 1033.7
11623 kPa | 1033.9
11661 kPa | 1033.8
11706 kPa | 1034
11743 kPa | 1033.8
11782 kPa | 1033.9
11828 kPa | 1034
11867 kPa | 1033.9
11906 kPa | 1033.9
11992 kPa | 1034.1
12032 kPa | 1034
12080 kPa | 1034.1
12120 kPa | 1034.1
12161 kPa | 1034.1
12211 kPa | 1034.3
12253 kPa | 1034.1
12295 kPa | 1034
12348 kPa | 1034.2
12392 kPa | 1034.2
12436 kPa | 1034.2
12474 kPa | 1034.3
12515 kPa | 1034.4
12549 kPa | 1034.3
12589 kPa | 1034.4
12624 kPa | 1034.4
12659 kPa | 1034.5
12695 kPa | 1034.5
12739 kPa | 1034.4
12775 kPa | 1034.3
12815 kPa | 1034.6
12841 kPa | 1034.5
12867 kPa | 1034.5
12897 kPa | 1034.5
12922 kPa | 1034.5
12949 kPa | 1034.5
12974 kPa | 1034.6
13005 kPa | 1034.5
13031 kPa | 1034.6
13058 kPa | 1034.5
13089 kPa | 1034.5
13115 kPa | 1034.7
13142 kPa | 1034.6
13174 kPa | 1034.6
13203 kPa | 1034.7
13230 kPa | 1034.9
13257 kPa | 1034.7
13285 kPa | 1034.8
13317 kPa | 1034.8
13344 kPa | 1034.8
13377 kPa | 1034.8
13404 kPa | 1034.8
13432 kPa | 1034.8
13460 kPa | 1034.9
13493 kPa | 1034.9
13521 kPa | 1034.9
13551 kPa | 1034.9
13580 kPa | 1035
13615 kPa | 1034.9
13643 kPa | 1034.9
13672 kPa | 1035.1
13701 kPa | 1035
13736 kPa | 1035
13764 kPa | 1035.1
13794 kPa | 1035
13829 kPa | 1035.1
13858 kPa | 1035.1
